According to the supplement of paper PMC10307832:

Assays:
Assay in all cases: relative viability (nuclei count vs DMSO), 5 days (fraction); higher = more cells survive
[1] = compound: CCn1c(-c2nonc2N)nc2cnc(Oc3cccc(NC(=O)c4ccc(OCCN5CCOCC5)cc4)c3)cc21 + Nc1ncn([C@H]2C[C@H](O)[C@@H](CO)O2)c(=O)n1 [Decitabine] (partner 2 µM)
Procedure, shortened: (§1)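 Relative viability was taken as the ratio of nuclei in treated wells to nuclei in vehicle wells. Lung cancer cell lines in 1536-well plates received compounds by pin tool one day after seeding, either one drug alone or a fixed anchor-drug dose plus five library-drug doses (not always all listed) in √10 steps. Nuclei were counted on 4× images after 5 days of treatment, and values are medians of duplicate plates.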

[2] = compound: CCn1c(-c2nonc2N)nc2cnc(Oc3cccc(NC(=O)c4ccc(OCCN5CCOCC5)cc4)c3)cc21 + O=C(CCCCCCC(=O)Nc1ccccc1)NO [Vorinostat] (partner 1 µM)
Procedure, shortened: as §1

Mirin + Bortezomib = compound: N=C1NC(=O)/C(=C/c2ccc(O)cc2)S1 [Mirin] + CC(C)C[C@H](NC(=O)[C@H](Cc1ccccc1)NC(=O)c1cnccn1)B(O)O [Bortezomib] (partner 0.002 µM)
Procedure, shortened: as §1

[3] = compound: CCC1=CN=CN=C1N2CCN(CC2)CC3=NC4=C(N3)C=C(C=C4)C(F)(F)F + CCNC(=O)c1noc(-c2cc(C(C)C)c(O)cc2O)c1-c1ccc(CN2CCOCC2)cc1 [Luminespib] (partner 0.01 µM)
Procedure, shortened: as §1

Cell Line	relative viability ([1]; first compound 0.04 µM)	relative viability ([1]; first compound 0.1265 µM)	relative viability ([1]; first compound 0.4 µM)	relative viability ([1]; first compound 1.265 µM)	relative viability ([1]; first compound 4 µM)	relative viability ([2]; first compound 0.04 µM)	relative viability ([2]; first compound 0.1265 µM)	relative viability ([2]; first compound 0.4 µM)	relative viability ([2]; first compound 1.265 µM)	relative viability ([2]; first compound 4 µM)	relative viability (Mirin + Bortezomib; first compound 0.25 µM)	relative viability (Mirin + Bortezomib; first compound 2.5 µM)	relative viability (Mirin + Bortezomib; first compound 7.906 µM)	relative viability (Mirin + Bortezomib; first compound 25 µM)	relative viability ([3]; first compound 0.04 µM)	relative viability ([3]; first compound 0.1265 µM)	relative viability ([3]; first compound 0.4 µM)	relative viability ([3]; first compound 4 µM)	relative viability (Mirin + Bortezomib; first compound 0.7906 µM)	relative viability ([3]; first compound 1.265 µM)
NCI-H596	1.01	1.04	0.969	0.926	0.932	0.598	0.531	0.617	0.468	0.604	1.12	0.982	1	0.905	1.25	1.02	0.814	1.03	–	–
NCI-H647	0.379	0.426	0.276	0.288	0.347	0.894	0.638	0.57	0.378	0.276	1.24	1.04	0.816	0.444	0.228	0.181	0.147	0.152	0.909	0.0988
NCI-H650	0.288	0.318	0.301	0.237	0.32	0.503	0.28	0.24	0.192	0.224	0.915	0.84	–	0.937	0.889	0.926	0.698	0.806	–	0.739
NCI-H661	0.498	0.559	0.406	0.448	0.33	0.891	0.906	0.888	0.627	0.517	0.696	0.836	0.518	0.527	0.968	0.935	0.885	0.783	0.787	0.872
NCI-H727	–	1.07	0.676	0.662	0.973	–	1.23	1.05	0.961	1.36	1.24	0.832	0.997	0.907	0.423	0.362	0.306	0.426	1.18	–
NCI-H838	0.422	0.393	0.303	0.331	0.271	0.459	0.372	0.337	0.329	0.205	0.865	0.884	0.78	0.738	0.271	0.229	0.308	0.327	0.521	0.342
NCI-H1355	0.31	0.36	0.358	0.364	0.307	0.653	0.668	0.413	0.377	0.313	1.3	1.16	1.23	1.38	0.707	0.641	0.689	0.753	1.19	0.61
NCI-H1437	0.489	0.61	0.547	0.499	0.426	0.88	0.93	0.903	0.682	0.512	0.498	0.438	0.41	0.472	1.07	0.995	0.964	0.907	0.436	1.01
NCI-H1650	0.504	0.282	0.348	0.604	0.478	0.666	0.59	0.562	0.596	0.528	0.196	0.216	0.208	0.191	0.212	0.207	0.186	0.213	0.2	–
NCI-H1651	0.74	0.728	0.581	0.271	0.488	0.604	0.639	0.467	0.292	0.497	0.912	0.931	0.854	0.916	0.977	0.84	0.739	0.767	0.959	0.923
NCI-H1666	0.796	0.787	0.751	0.653	0.704	1.13	1.05	1.12	1.05	1.03	0.883	0.976	0.513	0.479	0.949	0.906	0.925	1.04	0.873	0.908
NCI-H1734	0.574	0.504	0.515	0.459	0.393	0.937	0.838	0.586	0.412	0.399	0.952	0.987	0.831	0.793	0.213	0.196	0.173	0.185	0.778	0.207
NCI-H1755	0.732	0.72	0.729	0.719	0.654	0.843	0.796	0.615	0.577	0.506	0.951	0.979	0.873	1.11	0.458	0.483	0.311	0.308	1.03	0.338
NCI-H1915	0.249	0.265	0.275	0.24	0.21	0.507	0.52	0.472	0.244	0.225	1.03	1.01	0.931	0.945	0.699	0.827	0.75	0.688	–	0.639
NCI-H1975	0.311	0.289	0.293	0.228	0.201	0.666	0.623	0.554	0.37	0.273	0.375	0.468	0.498	0.321	0.283	0.302	0.176	0.205	0.366	0.199
